Assay results published in US20230071463A1, “SOLID STATE FORMS OF […] AND PROCESS FOR PREPARATION THEREOF” (TEVA PHARMACEUTICALS INTERNATIONAL GMBH, priority 2020, published 2023).

How the values were obtained:
[1] = Solid state stability on exposure to high relative humidity; format: physicochemical
[2] = Solid state stability on exposure to high temperatures and high relative humidity; format: physicochemical

Structure (SMILES) | stability when exposed to high relative humidity [1] | stability when exposed to high temperatures and high relative humidity [2]
[Cl][Mn-5]1234([Cl])[n+]5c6cccc5C[NH+]1[C@H]1CCCC[C@@H]1[NH+]2CC[NH+]3[C@H]1CCCC[C@@H]1[NH+]4C6 (some centres unmarked) [Form AM1, Avasopasem manganese] | stable | 
[Cl][Mn-5]1234([Cl])[n+]5c6cccc5C[NH+]1[C@H]1CCCC[C@@H]1[NH+]2CC[NH+]3[C@H]1CCCC[C@@H]1[NH+]4C6 (some centres unmarked) [Form AM2, Avasopasem manganese] |  | stable
